Source: ChEMBL document CHEMBL1909493, “Synthesis and biological evaluation of novel analogues of the pan class I phosphatidylinositol 3-kinase (PI3K) inhibitor 2-(difluoromethyl)-1-[4,6-di(4-morpholinyl)-1,3,5-triazin-2-yl]-1H-benzimidazole (ZSTK474)” (J Med Chem, 2011)
≈ marks a conversion by molar mass, not a printed value.

What was measured:
[1] = target: Phosphatidylinositol 4,5-bisphosphate 3-kinase catalytic subunit beta isoform (Homo sapiens, UniProt P42338); test: Inhibition of human recombinant PI3K p110beta expressed in Sf21 insect cells using phosphatidylinositol as substrate after 1 hr by phosphoimaging
Chain of Phosphatidylinositol 4,5-bisphosphate 3-kinase catalytic subunit beta isoform (P42338 whole entry, canonical isoform): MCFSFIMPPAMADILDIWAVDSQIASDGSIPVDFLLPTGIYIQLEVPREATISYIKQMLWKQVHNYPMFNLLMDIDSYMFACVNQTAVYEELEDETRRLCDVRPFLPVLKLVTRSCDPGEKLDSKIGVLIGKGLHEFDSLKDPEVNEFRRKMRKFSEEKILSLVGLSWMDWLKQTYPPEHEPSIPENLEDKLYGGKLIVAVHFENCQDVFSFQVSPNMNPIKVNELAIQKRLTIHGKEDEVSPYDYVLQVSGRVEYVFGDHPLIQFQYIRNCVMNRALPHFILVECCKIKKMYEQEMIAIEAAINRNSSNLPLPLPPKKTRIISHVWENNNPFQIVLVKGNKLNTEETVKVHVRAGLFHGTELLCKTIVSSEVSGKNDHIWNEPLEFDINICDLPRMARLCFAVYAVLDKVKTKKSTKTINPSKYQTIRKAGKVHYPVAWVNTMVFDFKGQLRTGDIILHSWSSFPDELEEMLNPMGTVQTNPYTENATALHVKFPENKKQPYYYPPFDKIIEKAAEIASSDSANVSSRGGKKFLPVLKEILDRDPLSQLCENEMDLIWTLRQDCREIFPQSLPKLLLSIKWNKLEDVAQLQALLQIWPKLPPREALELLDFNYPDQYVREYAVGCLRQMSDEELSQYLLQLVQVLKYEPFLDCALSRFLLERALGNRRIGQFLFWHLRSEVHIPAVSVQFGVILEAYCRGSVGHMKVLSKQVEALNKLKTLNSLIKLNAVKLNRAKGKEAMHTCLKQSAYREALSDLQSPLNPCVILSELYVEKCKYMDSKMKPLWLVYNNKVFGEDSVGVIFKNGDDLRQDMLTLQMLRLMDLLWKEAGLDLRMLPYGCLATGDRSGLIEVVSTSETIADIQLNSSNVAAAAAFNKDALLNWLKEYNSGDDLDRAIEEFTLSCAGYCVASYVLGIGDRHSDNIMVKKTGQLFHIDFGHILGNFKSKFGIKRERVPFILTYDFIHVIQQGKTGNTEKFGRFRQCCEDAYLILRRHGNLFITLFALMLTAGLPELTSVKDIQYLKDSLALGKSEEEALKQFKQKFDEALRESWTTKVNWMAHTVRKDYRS

[2] = Inhibition of bovine recombinant PI3K p110delta expressed in Sf21 insect cells using phosphatidylinositol as substrate after 1 hr by phosphoimaging; parameters: species or system Bos taurus
[3] = target: Phosphatidylinositol 4,5-bisphosphate 3-kinase catalytic subunit alpha isoform (Mus musculus, UniProt P42337); test: Inhibition of mouse recombinant PI3K p110alpha expressed in Sf21 insect cells using phosphatidylinositol as substrate after 1 hr by phosphoimaging
Chain of Phosphatidylinositol 4,5-bisphosphate 3-kinase catalytic subunit alpha isoform (Mus musculus, UniProt P42337) (P42337 whole entry, canonical isoform): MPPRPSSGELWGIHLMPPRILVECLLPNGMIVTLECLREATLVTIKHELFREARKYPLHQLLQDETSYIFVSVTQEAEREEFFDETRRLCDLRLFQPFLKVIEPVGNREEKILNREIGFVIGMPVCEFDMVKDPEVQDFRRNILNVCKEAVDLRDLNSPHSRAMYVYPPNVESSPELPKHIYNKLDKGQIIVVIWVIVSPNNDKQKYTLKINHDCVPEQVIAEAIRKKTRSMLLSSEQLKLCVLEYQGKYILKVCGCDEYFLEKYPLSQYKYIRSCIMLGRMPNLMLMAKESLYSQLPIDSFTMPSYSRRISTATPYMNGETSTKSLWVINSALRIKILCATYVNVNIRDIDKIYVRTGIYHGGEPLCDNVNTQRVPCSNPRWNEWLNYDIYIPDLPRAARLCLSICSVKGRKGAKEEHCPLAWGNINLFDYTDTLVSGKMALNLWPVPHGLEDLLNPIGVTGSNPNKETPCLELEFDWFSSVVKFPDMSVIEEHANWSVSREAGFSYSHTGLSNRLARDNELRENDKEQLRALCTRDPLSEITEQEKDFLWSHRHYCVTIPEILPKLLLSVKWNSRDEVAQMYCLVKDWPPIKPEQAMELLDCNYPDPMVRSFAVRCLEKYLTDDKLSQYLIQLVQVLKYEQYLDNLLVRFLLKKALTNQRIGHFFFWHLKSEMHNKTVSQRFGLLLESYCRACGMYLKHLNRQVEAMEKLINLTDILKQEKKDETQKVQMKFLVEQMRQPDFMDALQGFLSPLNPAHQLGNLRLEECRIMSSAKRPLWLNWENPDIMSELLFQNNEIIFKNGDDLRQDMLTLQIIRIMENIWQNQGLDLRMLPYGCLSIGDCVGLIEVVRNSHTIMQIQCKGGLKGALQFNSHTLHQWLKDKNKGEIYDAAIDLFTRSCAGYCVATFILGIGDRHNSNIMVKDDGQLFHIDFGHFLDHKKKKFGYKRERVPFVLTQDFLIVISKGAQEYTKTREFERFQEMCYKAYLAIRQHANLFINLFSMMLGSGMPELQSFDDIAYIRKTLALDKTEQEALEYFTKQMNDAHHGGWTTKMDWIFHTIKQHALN

cells [4] = conditions: Homo sapiens, NZOV9
cells [5] = conditions: Homo sapiens, NZB5
cells [6] = conditions: Homo sapiens, HCT-116
[7] = target: T1, Phosphatidylinositol 4,5-bisphosphate 3-kinase catalytic subunit alpha isoform (Homo sapiens, UniProt P42336); test: Inhibition of PIK3CA-mediated cell signaling in PTEN-deficient human U87MG cells assessed as inhibition of insulin-induced pAkt/PKB phosphorylation at Ser473 treated for 15 mins before insulin challenge measured after 5 mins by immunoblotting; type: cell-based, U-87MG ATCC
T1 sequence (P42336 whole entry, canonical isoform): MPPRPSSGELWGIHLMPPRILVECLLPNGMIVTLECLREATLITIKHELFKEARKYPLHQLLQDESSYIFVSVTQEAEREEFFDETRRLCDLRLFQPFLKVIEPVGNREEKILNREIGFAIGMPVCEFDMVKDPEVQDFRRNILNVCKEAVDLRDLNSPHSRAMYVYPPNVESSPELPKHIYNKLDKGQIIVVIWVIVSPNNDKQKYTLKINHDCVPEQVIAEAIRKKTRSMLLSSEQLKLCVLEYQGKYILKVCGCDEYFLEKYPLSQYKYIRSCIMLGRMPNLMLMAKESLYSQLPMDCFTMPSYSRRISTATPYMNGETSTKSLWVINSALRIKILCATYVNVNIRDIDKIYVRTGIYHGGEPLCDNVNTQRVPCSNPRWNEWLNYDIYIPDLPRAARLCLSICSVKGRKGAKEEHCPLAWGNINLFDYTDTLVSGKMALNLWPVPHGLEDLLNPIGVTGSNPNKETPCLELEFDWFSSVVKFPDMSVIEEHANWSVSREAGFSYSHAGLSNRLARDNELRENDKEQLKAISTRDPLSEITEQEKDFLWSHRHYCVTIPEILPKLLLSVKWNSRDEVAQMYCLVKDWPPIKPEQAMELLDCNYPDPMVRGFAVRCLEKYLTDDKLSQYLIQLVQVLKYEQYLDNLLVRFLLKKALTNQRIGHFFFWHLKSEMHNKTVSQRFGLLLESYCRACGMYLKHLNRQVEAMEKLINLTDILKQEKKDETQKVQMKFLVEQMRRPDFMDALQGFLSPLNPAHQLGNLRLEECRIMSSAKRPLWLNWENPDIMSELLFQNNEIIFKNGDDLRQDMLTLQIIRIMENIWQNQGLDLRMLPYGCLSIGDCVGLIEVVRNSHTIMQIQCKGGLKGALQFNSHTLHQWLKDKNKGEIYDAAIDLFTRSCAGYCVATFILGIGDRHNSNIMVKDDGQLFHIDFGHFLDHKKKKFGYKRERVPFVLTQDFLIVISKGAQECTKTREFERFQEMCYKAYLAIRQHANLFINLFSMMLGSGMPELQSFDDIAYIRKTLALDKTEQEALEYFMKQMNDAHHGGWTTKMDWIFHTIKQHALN

[8] = Aqueous solubility of the compound in water after 15 mins by HPLC analysis; conditions: aqueous medium
cells [9] = conditions: Homo sapiens, HCT-116; remark: listed apart in the source
[10] = target: T1, Phosphatidylinositol 4,5-bisphosphate 3-kinase catalytic subunit alpha isoform; test: Inhibition of PIK3CA-mediated cell signaling in PTEN-deficient human U87MG cells assessed as inhibition of insulin-induced pAkt/PKB phosphorylation at Thr308 treated for 15 mins before insulin challenge measured after 5 mins by immunoblotting; type: cell-based, U-87MG ATCC

| SMILES | IC50 [1] | IC50 [3] | IC50 (cells [4]) | IC50 (cells [5]) | IC50 (cells [6]) | IC50 [7] | solubility at […] [8] | IC50 (cells [9]) | IC50 [10] | IC50 [2] |
| --- | --- | --- | --- | --- | --- | --- | --- | --- | --- | --- |
| Cc1nc2ccccc2n1-c1nc(N2CCOCC2)nc(N2CCOCC2)n1 | 289 nM | 143 nM | 600 nM | 280 nM |  |  |  |  |  | 35 nM |
| FCc1nc2ccccc2n1-c1nc(N2CCOCC2)nc(N2CCOCC2)n1 | 53 nM | 34 nM | 350 nM | 390 nM |  |  |  |  |  | 13 nM |
| FC(F)(F)c1nc2ccccc2n1-c1nc(N2CCOCC2)nc(N2CCOCC2)n1 | 461 nM | 202 nM | 700 nM | 900 nM |  |  |  |  |  | 70 nM |
| C[S+]([O-])Cc1nc2ccccc2n1-c1nc(N2CCOCC2)nc(N2CCOCC2)n1 (centres undefined) | 230 nM | 590 nM | 490 nM | 400 nM |  |  |  |  |  | 35 nM |
| CS(=O)(=O)Cc1nc2ccccc2n1-c1nc(N2CCOCC2)nc(N2CCOCC2)n1 | 250 nM | 480 nM | 440 nM | 250 nM |  |  |  |  |  | 54 nM |
| COc1cccc2c1nc(C(F)F)n2-c1nc(N2CCOCC2)nc(N2CCOCC2)n1 | 25 nM | 2.7 nM | 10 nM | 50 nM | 37 nM | 55 nM | 0.08 µg/mL (≈ 0.179 µM) | 25 nM | 28 nM | 3.9 nM |
| CCCCOc1cccc2c1nc(C(F)F)n2-c1nc(N2CCOCC2)nc(N2CCOCC2)n1 | 2400 nM |  | 210 nM | 230 nM |  |  |  |  |  | 156 nM |
| CC(C)Oc1cccc2c1nc(C(F)F)n2-c1nc(N2CCOCC2)nc(N2CCOCC2)n1 | 2100 nM | 364 nM | 280 nM | 70 nM |  |  |  |  |  | 430 nM |
| CS(=O)(=O)Oc1cccc2c1nc(C(F)F)n2-c1nc(N2CCOCC2)nc(N2CCOCC2)n1 | 570 nM | 294 nM | 130 nM | 170 nM |  |  |  |  |  | 158 nM |
| Nc1cccc2c1nc(C(F)F)n2-c1nc(N2CCOCC2)nc(N2CCOCC2)n1 | 41 nM | 4.8 nM | 80 nM | 50 nM |  |  |  |  |  | 0.85 nM |
| COC(=O)c1cccc2c1nc(C(F)F)n2-c1nc(N2CCOCC2)nc(N2CCOCC2)n1 | 310 nM | 9.3 nM | 470 nM | 2800 nM |  |  |  |  |  | 65 nM |
| CNC(=O)c1cccc2c1nc(C(F)F)n2-c1nc(N2CCOCC2)nc(N2CCOCC2)n1 | > 1000 nM | 296 nM | 50 nM | 480 nM |  |  |  |  |  | 1000 nM |
| CN(C)C(=O)c1cccc2c1nc(C(F)F)n2-c1nc(N2CCOCC2)nc(N2CCOCC2)n1 | > 1000 nM | > 1000 nM | 240 nM | 730 nM |  |  |  |  |  | > 1000 nM |
| FC(F)c1nc2c3c(ccc2n1-c1nc(N2CCOCC2)nc(N2CCOCC2)n1)OCO3 | 47 nM | 550 nM | 40 nM | 130 nM |  |  |  |  |  | 39 nM |
| COc1ccc2c(nc(C(F)F)n2-c2nc(N3CCOCC3)nc(N3CCOCC3)n2)c1OC | 801 nM | 335 nM | 36 nM | 20 nM |  |  |  |  |  | 258 nM |
| COc1c(O)ccc2c1nc(C(F)F)n2-c1nc(N2CCOCC2)nc(N2CCOCC2)n1 | 94 nM |  | 11 nM |  |  |  |  |  |  | 1.8 nM |
| COc1cc(OC)c2nc(C(F)F)n(-c3nc(N4CCOCC4)nc(N4CCOCC4)n3)c2c1 | 118 nM | 58 nM | 59 nM | 95 nM |  |  |  |  |  | 12.5 nM |
| CNc1cc(OC)c2nc(C(F)F)n(-c3nc(N4CCOCC4)nc(N4CCOCC4)n3)c2c1 | 0.91 nM | 2 nM | 16 nM | 390 nM |  |  |  |  |  | 0.52 nM |
| COc1cncc2c1nc(C(F)F)n2-c1nc(N2CCOCC2)nc(N2CCOCC2)n1 | 1030 nM | 1290 nM | 2600 nM | 5600 nM |  |  |  |  |  | 1600 nM |
| COc1cccc2c1nc(C(F)F)n2-c1nc(N2CCOCC2)cc(N2CCOCC2)n1 | 35 nM | 5.1 nM | 30 nM | 60 nM |  |  |  |  |  | 18 nM |
| FC(F)c1nc2ccccc2n1-c1cc(N2CCOCC2)nc(N2CCOCC2)n1 | 170 nM | 88 nM | 300 nM |  |  |  |  |  |  | 13 nM |
| COc1cccc2c1nc(C(F)F)n2-c1cc(N2CCOCC2)nc(N2CCOCC2)n1 | 40 nM | 4 nM |  |  |  |  |  |  |  | 14 nM |
| CS(=O)(=O)O.Cn1c(=O)n(-c2ccc(C(C)(C)C#N)cc2)c2c3cc(-c4cnc5ccccc5c4)ccc3ncc21 |  |  |  |  |  |  | 11.3 µg/mL |  |  |  |
| COc1cc(N)cc2c1nc(C(F)F)n2-c1nc(N2CCOCC2)nc(N2CCOCC2)n1.CS(=O)(=O)O |  |  |  |  |  |  | 4.2 µg/mL |  |  |  |

More lines, main results first:

| IC50 [1] | IC50 [3] | IC50 (cells [4]) | IC50 (cells [5]) | IC50 (cells [6]) | IC50 [7] | solubility at […] [8] | IC50 (cells [9]) | IC50 [10] | SMILES | IC50 [2] |
| --- | --- | --- | --- | --- | --- | --- | --- | --- | --- | --- |
| 518 nM | 16 nM | 50 nM | 70 nM |  |  |  |  |  | CCCOc1cccc2c1nc(C(F)F)n2-c1nc(N2CCOCC2)nc(N2CCOCC2)n1 | 95 nM |
| 1540 nM | 265 nM | 300 nM | 1500 nM |  |  |  |  |  | c1ccc2c(c1)ncn2-c1nc(N2CCOCC2)nc(N2CCOCC2)n1 | 142 nM |
| > 1000 nM | > 1000 nM | 5500 nM | 750 nM |  |  |  |  |  | OCc1nc2ccccc2n1-c1nc(N2CCOCC2)nc(N2CCOCC2)n1 | 5470 nM |
| 39 nM | 170 nM | 86 nM | 83 nM |  |  |  |  |  | CSCc1nc2ccccc2n1-c1nc(N2CCOCC2)nc(N2CCOCC2)n1 | 41 nM |
| > 1000 nM | 2900 nM | 200 nM | 200 nM |  |  |  |  |  | CSc1nc2ccccc2n1-c1nc(N2CCOCC2)nc(N2CCOCC2)n1 | 270 nM |
| 383 nM | 203 nM | 2000 nM | 10000 nM |  |  |  |  |  | CS(=O)(=O)c1nc2ccccc2n1-c1nc(N2CCOCC2)nc(N2CCOCC2)n1 | 76 nM |
| 104 nM | 2.7 nM | 40 nM | 70 nM |  |  |  |  |  | CCOc1cccc2c1nc(C(F)F)n2-c1nc(N2CCOCC2)nc(N2CCOCC2)n1 | 5.5 nM |
| 480 nM | 210 nM | 260 nM | 110 nM |  |  |  |  |  | CNc1cccc2c1nc(C(F)F)n2-c1nc(N2CCOCC2)nc(N2CCOCC2)n1 | 67 nM |
| > 1000 nM | 5400 nM | 2540 nM | 60 nM |  |  |  |  |  | CN(C)c1cccc2c1nc(C(F)F)n2-c1nc(N2CCOCC2)nc(N2CCOCC2)n1 | 539 nM |
| 68 nM | 27 nM | 170 nM | 300 nM |  |  |  |  |  | OCc1cccc2c1nc(C(F)F)n2-c1nc(N2CCOCC2)nc(N2CCOCC2)n1 | 12 nM |
| > 1000 nM | > 1000 nM |  | 760 nM |  |  |  |  |  | NC(=O)c1cccc2c1nc(C(F)F)n2-c1nc(N2CCOCC2)nc(N2CCOCC2)n1 | 1000 nM |
| > 1000 nM | 61 nM | > 20000 nM | > 20000 nM |  |  |  |  |  | N#Cc1cccc2c1nc(C(F)F)n2-c1nc(N2CCOCC2)nc(N2CCOCC2)n1 | 66 nM |
| 18.5 nM | 8 nM | 150 nM | 130 nM |  |  |  |  |  | COc1cc(N(C)C)cc2c1nc(C(F)F)n2-c1nc(N2CCOCC2)nc(N2CCOCC2)n1 | 6.8 nM |
| 72 nM | 30 nM | 260 nM | 120 nM |  |  |  |  |  | FC(F)c1nc2ccccc2n1-c1nc(N2CCOCC2)cc(N2CCOCC2)n1 | 10 nM |
| 0.81 nM | 1.5 nM |  | 100 nM |  |  |  |  |  | Oc1cccc2c1nc(C(F)F)n2-c1nc(N2CCOCC2)cc(N2CCOCC2)n1 | 0.27 nM |
